From patent US20060223792A1, “Phenyl and pyridyl LTA4H modulators” (priority 2005, published 2006)
Counter-ions that a name gives are not always drawn. Like-named read-outs stand apart in the source and are kept apart here.

Key:
[1] = molecular target: T1, recombinant human LTA4 hydrolase (rhLTA4H) (Homo sapiens, UniProt P09960); test: Recombinant human LTA4 hydrolase assay for LTA4 hydrolase inhibitor activity; type: biochemical; settings: recombinant human LTA4H, LTB4 quantified by enzyme-linked immunoassay; average of one to three determinations; read-out: IC50
T1 construct: made in house; host or cells: Spodoptera frugiperda (Sf-9) cells, baculovirus (pFastBac1)
T1 sequence (P09960 1-611): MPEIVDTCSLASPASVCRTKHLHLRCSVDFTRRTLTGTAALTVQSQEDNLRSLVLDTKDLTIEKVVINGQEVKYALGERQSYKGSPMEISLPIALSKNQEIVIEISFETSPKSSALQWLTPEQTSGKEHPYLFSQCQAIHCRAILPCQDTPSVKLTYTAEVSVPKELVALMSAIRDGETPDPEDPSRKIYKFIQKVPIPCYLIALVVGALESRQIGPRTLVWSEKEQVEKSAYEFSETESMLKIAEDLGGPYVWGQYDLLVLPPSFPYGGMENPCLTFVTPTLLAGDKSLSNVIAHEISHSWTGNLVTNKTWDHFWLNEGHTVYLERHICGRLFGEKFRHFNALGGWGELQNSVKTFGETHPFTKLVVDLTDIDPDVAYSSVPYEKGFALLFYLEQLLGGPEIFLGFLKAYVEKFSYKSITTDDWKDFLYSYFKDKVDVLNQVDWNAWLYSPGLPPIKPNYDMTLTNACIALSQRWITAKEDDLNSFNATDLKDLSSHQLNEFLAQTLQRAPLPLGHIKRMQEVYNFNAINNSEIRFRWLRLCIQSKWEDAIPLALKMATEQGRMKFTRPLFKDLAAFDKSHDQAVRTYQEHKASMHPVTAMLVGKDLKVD
In short: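 Sf-9-expressed rhLTA4H (36 ng) preincubated 10 min at rt with compound in 0.1 M potassium phosphate pH 7.4, 5 mg/mL fatty-acid-free BSA; 9 ng LTA4 free acid added, 10 min at rt in 225 μL. LTB4 measured by enzyme immunoassay; IC50 from 4-parameter fit, mean of one to three determinations.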

[2] = system: ex vivo stimulated LTB4 production; test: Murine arachidonic acid-induced inflammation model: ex vivo stimulated LTB4 production in blood; settings: Mus musculus; 30 mg/kg oral gavage, female Balb/c mice; blood taken 3 h after arachidonic acid, stimulated ex vivo with A23187; read-out: % Inh. LTB4
Protocol: (§1) Murine Arachidonic Acid-Induced Inflammation Model
(§2) LTA4H inhibitor compounds of the present invention were dissolved in 20% cyclodextran/H2O at a concentration of 3 mg/mL. The solutions were administered by oral gavage to female Balb/c mice weighing approximately 20 grams each (0.2 mL per mouse, 30 mg of LTA4H inhibitor compound per kg). Sixty minutes after being administered an LTA4 inhibitor, each mouse received topical application of 20 μL of arachidonic acid (100 mg/mL in acetone) to the left ear and 20 μL of acetone only to the right ear. After 3 h, the mice were sacrificed, blood was withdrawn in heparinized syringes, and 8 mm ear biopsies were taken. Ear biopsies were weighed to determine edema and then frozen at −80° C. until needed for determination of neutrophil influx.
One hundred-microliter aliquots of heparinized blood were added to wells of a microtiter plate, along with equal volumes of RPMI-1640 medium, and calcium ionophore A23187 was added to each sample well (final concentration=[…]). The microtiter plate contents were incubated for 10 min at 37° C. in a humidified incubator. The reaction was terminated by centrifugation (833×g, 10 min at 4° C.). Supernatants were analyzed for LTB4 by a commercially available enzyme-linked immunoassay (Cayman Chemical Co.) in accordance with the manufacturer's instructions. The percent inhibition of ex vivo stimulated LTB4 production (% Inh. LTB4) was determined by comparison to animals treated identically except that the solution admininstered by oral gavage was devoid of inhibitor compound.

[3] = system: neutrophil influx (myeloperoxidase, MPO); test: Murine arachidonic acid-induced inflammation model: neutrophil influx in ear (myeloperoxidase activity); type: in vivo, female Balb/c mice; settings: Mus musculus, read-out: % Inh. MPO
Protocol: as §1, §2
Neutrophil influx was quantified by measuring the activity of myeloperoxidase (MPO), a neutrophil-specific enzyme. The ear biopsies were homogenized in 0.5 mL extraction buffer (0.3 M sucrose, 0.22% (w/v) hexadecyl trimethyl ammonium bromide (CTAB), and 2.5 mM citrate prepared from 0.5 M citrate stock solution (pH 5.0)). Debris was removed by centrifugation at 14000×g for 10 min. Aliquots of 10 μL of the resulting supernatant were added to wells of a microtiter plate, along with 90-μL aliquots of dilution buffer (10 mM citrate, 0.22% CTAB), followed by addition of 20 μL TMB liquid substrate system (Sigma Chemical Co.) to each sample well. The microtiter plate contents were held at rt for 1 h. The reaction was stopped by addition of 100 μL 1 M H2SO4 to each sample well, and the myeloperoxidase activity in each sample was determined from the absorbance at 405 nm. The background value from the right ear, treated only with acetone, was subtracted from that for the left ear, treated with arachidonic acid in acetone, for each animal. The percent inhibition of neutrophil influx (% lnh. MPO) by compounds of the invention was determined by comparison to animals treated identically, except that the solution administered by oral gavage was devoid of inhibitor compound.

[4] = system: LTB4 production by calcium ionophore-stimulated murine blood; test: LTB4 production by calcium ionophore-stimulated murine blood for LTA4H inhibitor activity; type: cell-based, CD-1 mice; settings: diluted CD-1 mouse whole blood, calcium ionophore A23187, LTB4 by enzyme-linked immunoassay
Protocol: LTB4 Production by Calcium Ionophore-Stimulated Murine Blood for LTA4H Inhibitor Activity
CD-1 mice were sacrificed, and blood was collected in heparin-containing syringes by cardiac puncture. The blood was diluted 1:15 with RPMI-1640 medium, and 200-μL aliquots of the diluted blood were added to wells of a 96-well microtiter plate. LTA4H inhibitor test compounds were prepared at different concentrations in RPMI-1640 medium containing […], and 20 μL of each test solution was added to a well containing diluted whole blood (final DMSO concentration of 0.1%). After the microtiter plate contents were incubated for 15 min at 37° C. in a humidified incubator, calcium ionophore A23187 (Sigma Chemical Co., St. Louis, Mo.) was added to each sample well (final concentration=20 ng/mL). The incubation was continued under the same conditions for an additional 10 min to allow LTB4 formation. The reaction was terminated by centrifugation (833×g, 10 min at 4° C.), and supernatants were analyzed for LTB4 by a commercially available enzyme-linked immunoassay (Cayman Chemical Co.) according to the manufacturer's instructions. Positive controls, under essentially identical conditions but without addition of an inhibitor compound, and negative unstimulated controls, containing all assay components except calcium ionophore, were routinely run in each experiment. IC50 values were determined by fitting the activity data at different compound concentrations to a 4-parameter equation using the Grafit program (Erithacus software).

[5] = system: ionophore-induced LTB4 production; settings: oral administration; cited from earlier work
[6] = system: ionophore-induced LTB4 production; settings: oral administration; cited from earlier work; remark: listed apart in the source
colitis symptoms = settings: eight weeks of treatment, cotton top tamarins; cited from earlier work
[7] = 30 mg/kg oral gavage 60 min before topical arachidonic acid to ear, female Balb/c mice, ear biopsies after 3 h

SMILES	IC50 [1]	inhibition at 30 mg/kg [2]	IC50 [4]	other results
O=C(Nc1ccccc1)Oc1ccc(OCCN2CCCCC2)cc1 [Example 15, Phenyl-carbamic acid 4-(2-piperidin-1-yl-ethoxy)-phenyl ester]	13 nM	78%		inhibition in vivo at 30 mg/kg ([3]; po, 3 h): 92%
c1ccc(CCOc2ccc(CCN3CCC(c4nnn[nH]4)CC3)cc2)cc1 [Example 30, 1-[2-(4-Phenethyloxy-phenyl)-ethyl]-4-(1H-tetrazol-5-yl)-piperidine]	27 nM		169 nM	
O=C(O)CCN(CCc1ccc(OCCc2ccccc2)cc1)C1CC1 [Example 35, 3-{Cyclopropyl-[2-(4-phenethyloxy-phenyl)-ethyl]-amino}-propionic acid trifluoroacetic acid salt]	0.5 nM	84%		inhibition in vivo at 30 mg/kg [3, 7]: 92%
O=C(Nc1ccccc1)Oc1ccc(OCCN2CCC(O)(c3ccccc3)CC2)cc1 [Example 47, Phenyl-carbamic acid 4-[2-(4-hydroxy-4-phenyl-piperidin-1-yl)-ethoxy]-phenyl ester]	1 nM	80%		inhibition in vivo at 30 mg/kg ([3]; po, 3 h): 95%
CCCCN(CCCC)CCOc1ccc(OC(=O)Nc2ccccc2)cc1 [Example 48, Phenyl-carbamic acid 4-(2-dibutylamino-ethoxy)-phenyl ester]	9 nM	69%		inhibition in vivo at 30 mg/kg ([3]; po, 3 h): 66%
O=C(Nc1ccccc1)Oc1ccc(OCCN2CCC(CO)CC2)cc1 [Example 51, Phenyl-carbamic acid 4-[2-(4-hydroxymethyl-piperidin-1-yl)-ethoxy]-phenyl ester]	4 nM		12 nM	
O=C(Nc1ccccc1)Oc1ccc(CCN2CCCCC2)cc1 [Example 52, Phenyl-carbamic acid 4-(2-piperidin-1-yl-ethyl)-phenyl ester]	3 nM	80%		inhibition in vivo at 30 mg/kg ([3]; po, 3 h): 87%
O=C(Nc1ccsc1)Oc1ccc(OCCN2CCCCC2)cc1 [Example 64, Thiophen-3-yl-carbamic acid 4-(2-piperidin-1-yl-ethoxy)-phenyl ester]	3 nM		48 nM	
c1ccc(CCOc2ccc(OCCN3CCCCC3)cc2)cc1 [Example 67, 1-[2-(4-Phenethyloxy-phenoxy)-ethyl]-piperidine]	23 nM		175 nM	
c1ccc2c(c1)CC(Oc1ccc(OCCN3CCCCC3)cc1)C2 [Example 69, 1-{2-[4-(Indan-2-yloxy)-phenoxy]-ethyl}-piperidine]	20 nM		215 nM	
NC(=O)C1CCN(CCc2ccc(OCCc3ccccc3)cc2)CC1 [Example 79, 1-[2-(4-Phenethyloxy-phenyl)-ethyl]-piperidine-4-carboxylic acid amide]	50 nM		192 nM	
O=C(O)CCN(CCc1ccc(OCCc2ccccc2)cc1)C1CCCCC1 [Example 89, 3-{Cyclohexyl-[2-(4-phenethyloxy-phenyl)-ethyl]-amino}-propionic acid]	7 nM	36%		inhibition in vivo at 30 mg/kg [3, 7]: 41%
CS(=O)(=O)NC1CCN(Cc2ccc(OCCc3ccccc3)cc2)CC1 [Example 93, N-[1-(4-Phenethyloxy-benzyl)-piperidin-4-yl]methanesulfonamide]	18 nM		16 nM	
c1ccc(CCOc2ccc(CN3CCC(c4nnn[nH]4)CC3)cc2)cc1 [Example 104, 1-(4-Phenethyloxy-benzyl)-4-(1H-tetrazol-5-yl)-piperidine]	61 nM		284 nM	
O=C1CCCN1C1CCN(Cc2ccc(OCCCc3ccccc3)cc2)CC1 [Example 107, 1-{1-[4-(3-Phenyl-propoxy)-benzyl]-piperidin-4-yl}-pyrrolidin-2-one]	5 nM		33 nM	
CC(=O)NC1CCN(Cc2ccc(OCCc3ccccc3)cc2)CC1 [Example 113, N-[1-(4-Phenethyloxy-benzyl)-piperidin-4-yl]-acetamide]	13 nM		56 nM	
CS(=O)(=O)NC1CCN(Cc2ccc(OCCCc3ccccc3)cc2)CC1 [Example 119, N-{1-[4-(3-Phenyl-propoxy)-benzyl]-piperidin-4-yl}-methanesulfonamide]	19 nM		93 nM	
CC(=O)NC1CCN(Cc2ccc(OCCCc3ccccc3)cc2)CC1 [Example 120, N-{1-[4-(3-Phenyl-propoxy)-benzyl]-piperidin-4-yl}-acetamide]	25 nM		126 nM	
CN(CCCOc1ccc(Cc2ccccc2)cc1)CCC(=O)O.Cl [SC57461]				inhibition of ionophore-induced LTB4 production in mouse blood ex vivo [5]: caused inhibition; inhibition of ionophore-induced LTB4 production in rat peritoneum in vivo [6]: caused inhibition; colitis symptoms (colitis symptoms): significantly improved colitis symptoms
